Measurements reported in publication PMC3817308, “Metal-sensitive and thermostable trypsin from the crevalle jack (Caranx hippos) pyloric caeca: purification and characterization” (Chemistry Central Journal, 2013).

System: T1, trypsin from crevalle jack (Caranx hippos) pyloric caeca
T1 construct: gene trypsin-like enzyme; native, purified from pyloric caeca (heat, ammonium sulfate, Sephadex G-75); mature N-terminus IVGGFECTPHVFAYQ
Assay: p-nitroaniline release at […] nm, Michaelis-Menten fit
Type: biochemical
Settings: 0.1 M Tris-HCl pH 8.0; 0.02-2.4 mM BApNA

Km: 689 ± 50 µM
Structure (SMILES): NC(N)=NCCCC(NC(=O)c1ccccc1)C(=O)Nc1ccc([N+](=O)[O-])cc1 (racemic) [BApNA, N-α-benzoyl-DL-arginine-p-nitroanilide]
